This note sets out measurements from patent US20100204156A1, “USE OF THYMOPENTIN AS A THERAPEUTIC AGENT” (priority 2007, published 2010).

Residues, ends and D or L forms follow the SMILES beside them.

Data set [1] deals with CEM-SS cells. Nature of the data set: Cell viability / cytotoxicity (MTS) in the HIV-1 assay. To be noted: peptide 10 micrograms per ml, MTS.
The subject of data set [2] is Primary Human endothelial cells (HUVEC). Description: Endothelial cell migration assay. To be noted: 22 hours, test peptide 10 micrograms per ml. It counts as cell-based.
For data set [3], the system named is spleen cells of Ovalbumin-immunized Balb/c mice. Nature of the data set: Th1/Th2 cytokine profiling assay (Mouse Th1/Th2 Cytokine CBA Kit). In kind it is cell-based. The conditions noted are these: test peptide 10 micrograms per ml; Ovalbumin restimulation, 72 hours. An excerpt:
The Balb/c mice (originated in 1923, it is a popular strain and is used in many different research disciplines. Also classified as an inbred from the production of 20 or more successive brother-sister matings, the Balb/c mouse is albino and small in size) were immunized on Days 1, 15, and 29 with Ovalbumin (Ovalbumin is the main protein found in egg white, commonly used to stimulate an immunological reaction in test animals) in PBS (5 micrograms/injection). On day 50, spleens of the mice were harvested (3 weeks after last boost with Ovalbumin). […] Thereafter, additional Ovalbumin was added to the cells at 10 micrograms/ml for in vitro restimulation of the cells. 72 hours later, cell supernatants were harvested and assayed using the Becton Dickinson Mouse Th1/Th2 Cytokine CBA Kit. This kit can be used to measure Interleukin-2 (IL-2), Interleukin-4 (IL-4), Interleukin-5 (IL-5), Interferon-γ (IFN-γ), and Tumor Necrosis Factor-α (TNF-α) protein levels in a single sample. The kit performance has been optimized for analysis of physiologically relevant concentrations ([…] levels) of specific cytokine proteins in tissue culture supernatants and serum samples.

A short description of data set [4]: Cell viability / cytotoxicity (MTS) in the HIV-1 assay. The conditions noted are these: human, CEM-SS cells.
The subject of data set [5] is Human Peripheral Blood Mononuclear Cells (PBMC). Description: T cell proliferation assay (PHA, 3H-thymidine). In kind it is cell-based. To be noted: test peptide 10 micrograms per ml. Here is the method: (§1) Human Peripheral Blood Mononuclear Cells (PBMC) were obtained from normal human donors. The T cell proliferation was induced by stimulation of the cells with the T cell mitogen phytohemagglutinin (PHA), either in the absence (positive proliferation control), or in the presence of test peptide—10 micrograms per ml—to examine their effects on the T cell proliferating response. 10^5/well PBMC were plated in 96-well microtiter plates and assayed in duplicate with the peptide. Cell cultures were incubated at 37° C. for 3 days in a 5% CO2 incubator and were thereafter pulsed with 1 microCi/well ^3H-thymidine for additional 12 hours of culture. At the end of incubation time, the plates were harvested and the cells counted by liquid scintillation for the incorporation of ^3H-thymidine as a measure of T cell proliferation.

The test system of data set [6] is Human A549 cells. Description: Propidium iodide cell cycle assay. It counts as cell-based. The conditions noted are these: 24 hours, test peptide 10 micrograms per ml, FACS. An excerpt:
Human A549 cells (carcinomic human alveolar basal epithelial cells) were utilized in the experiments employing the Propidium iodide cell cycle assay. The eukaryotic cell cycle is a series of events that take place in a cell leading to its replication. The regulation of the cell cycle involves steps crucial to the cell, including detecting and repairing genetic damage, and provision of various checks to prevent uncontrolled cell division. The molecular events that control the cell cycle are ordered and directional; that is, each process occurs in a sequential fashion. The cell cycle consists of four distinct phases: G1 phase, S phase, G2 phase (collectively known as interphase) and M phase. M phase is itself composed of two tightly coupled processes: mitosis, in which the cell's chromosomes are divided between the two daughter cells, and cytokinesis, in which the cell's cytoplasm divides forming distinct cells. Activation of each phase is dependent on the proper progression and completion of the previous one. Cells that have temporarily or reversibly stopped dividing are said to have entered a state of quiescence called Go phase. The relatively brief M phase consists of nuclear division and cytoplasmic division. The first phase within interphase, from the end of the previous M phase till the beginning of DNA synthesis is called G1 (G indicating gap or growth). During this phase the biosynthetic activities of the cell resume at a high rate. This phase is marked by synthesis of various enzymes that are required in S phase, mainly those needed for DNA replication. The ensuing S phase starts when DNA synthesis commences; when it is complete, all of the chromosomes have been replicated. The cell then enters the G2 phase, which lasts until the cell enters mitosis. Significant protein synthesis occurs during this phase, mainly involving the production of microtubules, which are required during the process of mitosis. […]
Propidium iodide is an intercalating agent and a fluorescent molecule that can be used to stain DNA. […] After incubation for 40 min at 37° C., cells were analyzed in the FACS.

For data set [7], the system named is HIV-1IIIB. Description: HIV-1 antiviral assay (CPE reduction, MTS) in CEM-SS cells. In kind it is cell-based. The conditions noted are these: peptide 10 micrograms per ml, 6 days post-infection.
Data set [8] deals with Pseudomonas aeruginosa. Description: Pseudomonas aeruginosa assay. It counts as cell-based. The conditions noted are these: Pseudomonas aeruginosa growth; peptide 10 micrograms per ml; read visually.
In data set [9] the test system is hepatitis B virus (HBV) ayw strain. Description: HBV assay: secreted HBV DNA by real-time TaqMan PCR in HepG2-2.2.15 cells. It counts as cell-based. To be noted: test peptide 10 micrograms per ml; six days; HBV DNA in supernatant. An excerpt:
HepG2-2.2.15 is a stable cell line containing the hepatitis B virus (HBV) ayw strain genome (ATCC Cat. No. CRL-11997). Antiviral compounds blocking any late step of viral replication such as transcription, translation, pregenome encapsidation, reverse transcription, particle assembly and release can be identified and characterized using this cell line. In this assay, an active compound will reduce the production of secreted HBV from cells, measured by utilizing real time quantitative PCR (TaqMan) assay to directly and accurately measure HBV DNA copies.
HepG2-2.2.15 cells were plated in 96-well microtiter plates. After 16-24 hours the confluent monolayer of HepG2-2.2.15 cells was washed and the medium was replaced with complete medium containing test peptide—10 micrograms per ml—in duplicate. […] Six days following the initial administration of the peptide, the cell culture supernatants was collected, treated with pronase and DNAse and then used in a real-time quantitative TaqMan PCR assay. The PCR-amplified HBV DNA was detected in real-time by monitoring increases in fluorescence signals that result from the exonucleolytic degradation of a quenched fluorescence probe molecule that hybridizes to the amplified HBV DNA. […] Antiviral activity was calculated from the reduction in HBV DNA levels (% virus control). […]
A general note: Quantitative PCR measures a nucleic acid by following its amplification.

In data set [10] the test system is Human A549 cells. Nature of the data set: Apoptosis induction assay (Annexin-5). It counts as cell-based. To be noted: 24 hours, test peptide 10 micrograms per ml. An excerpt:
Human A549 cells (carcinomic human alveolar basal epithelial cells) were utilized in the experiments employing the Annexin-5 apoptosis assay. Annexin-5 is a member of a highly conserved protein family that binds acidic phospholipids in a calcium-dependent manner. […] Phosphatidylserine is translocated from the inner side of the plasma membrane to the outer layer when cells undergo death by apoptosis or cell necrosis and serves as a signal by which cell destined for death are recognized by phagocytes. Test peptide—10 micrograms per ml—were exposed for 24 hours to the A549 cells before they were analyzed for signs of apoptosis.

Data set [11] concerns MRSA. Description: Methicillin Resistant Staphylococcus Aureus (MRSA) assay. It counts as cell-based. The conditions noted are these: MRSA growth; peptide 10 micrograms per ml; read visually.
The test system of data set [12] is Human Peripheral Blood Mononuclear Cells (PBMC). Description: B cell proliferation assay (SAC plus Interleukin-2, 3H-thymidine). The conditions noted are these: test peptide 10 micrograms per ml. It counts as cell-based. Here is the method: as §1, with “The B” for “The T”, “the B” for “the T”, “mitogen Staphylococcus aureus Cowans I (SAC) plus Interleukin-2,” for “mitogen phytohemagglutinin (PHA),”, “cell” for “cell proliferating”, “of B” for “of T”

In data set [13] the test system is HCMV strain AD169. Nature of the data set: HCMV plaque reduction assay in MRC-5 cells. It counts as cell-based. To be noted: HCMV AD169 in MRC-5 cells; peptide 10 micrograms per ml; 7-10 days. An excerpt: (§2) Ganciclovir was used as positive control.
On the technique in general: In a plaque reduction assay, fewer plaques than in the control indicate reduced infectivity or spread.

A short description of data set [14]: Cytotoxicity testing (CellTiter 96) in MRC-5 cells. The conditions noted are these: human, MRC-5 cells (human embryonal lung fibroblasts), 6 days incubation, read-out: % Cell viability. In kind it is cell-based.
Description: as §2

The nature of data set [15]: Cell viability (dye uptake) in the HBV assay. The conditions noted are these: human, HepG2-2.2.15 cells, test peptide 10 micrograms per ml. In kind it is cell-based.
Data set [16] deals with Streptococcus pneumoniae. Nature of the data set: Streptococcus pneumoniae assay. In kind it is cell-based. The conditions noted are these: Streptococcus pneumoniae growth; peptide 10 micrograms per ml; read visually.
Data set [17] deals with Human A549 cells. Description: Apoptosis prevention assay (Annexin-5, C2 ceramide). It counts as cell-based. The conditions noted are these: A549 cells pretreated 30 min, test peptide 10 micrograms per ml. An excerpt: Human A549 cells (carcinomic human alveolar basal epithelial cells) were utilized in the experiments employing the Annexin-5 apoptosis assay. Annexin-5 is a member of a highly conserved protein family that binds acidic phospholipids in a calcium-dependent manner. […] Phosphatidylserine is translocated from the inner side of the plasma membrane to the outer layer when cells undergo death by apoptosis or cell necrosis and serves as a signal by which cell destined for death are recognized by phagocytes. A549 cells were pretreated for 30 min with test peptide—10 micrograms per ml—followed by the exposure to C2 ceramide. Ceramide mediates cell apoptosis through the activation of the mitogen activating protein kinase (MAPK) and the stress activated kinase (JNK/SAPK). C2 ceramide is a synthetic, membrane soluble analog of ceramide.

For data set [18], the system named is HUVEC. Description: Endothelial tube formation assay. It counts as cell-based, Human. To be noted: 20 hours, test peptide 10 micrograms per ml. An excerpt: Positive control was vehicle only.
Data set [19] concerns macrophages differentiated from Human PBMC. Nature of the data set: TNF alpha production assay (LPS-stimulated macrophages, ELISA). It counts as cell-based. To be noted: test peptide 10 micrograms per ml, lipopolysaccharide 200 ng/ml, overnight. Here is the method:
Human Peripheral Blood Mononuclear Cells (PBMC) were obtained from normal human donors. The macrophages were prepared by adherence of PBMC to the plastic wells of the plates. […] Not stimulated macrophages served as negative background control. After overnight incubation, supernatants from the control and LPS-stimulated cultures were harvested and assayed for TNF alpha production employing a TNF alpha specific ELISA.
For orientation: ELISA stands for enzyme-linked immunosorbent assay.

As to `Cc1cn([C@H]2C[C@H](N=[N+]=[N-])[C@@H](CO)O2)c(=O)[nH]c1=O` [AZT, reference compound], the “% Cell viability” value in [1] was determined as 97%.

For orientation: viability means the share of living cells, or the viability signal relative to a control. The term % inhibition denotes the drop in the measured response relative to a control, in per cent. High values mean strong suppression, low ones little suppression. Consider `CC(C)[C@H](NC(=O)[C@H](CC(=O)O)NC(=O)[C@H](CCCCN)NC(=O)[C@@H](N)CCCN=C(N)N)C(=O)N[C@@H](Cc1ccc(O)cc1)C(=O)O` [Thymopentin, Arg-Lys-Asp-Val-Tyr-OH] (H-RKDVY-OH), for which, in [2], the “% inhibition of migration” value is listed as 7%. Further, in data set [3], the “IFNγ spleen cells; TH1 response (% of control)” value was 62.0 % of control, the “IL-2 spleen cells (% of control)” value is 122.2 % of control, the “IL-4 spleen cells; TH2 response (% of control)” value is on record as 170.6 % of control and the “IL-5 spleen cells; TH2 response (% of control)” value is 73.8 % of control. Besides, in data set [3], the “TNF-a spleen cells; TH1 response (% of control)” value is 109.6 % of control. The viability at 10 micrograms per ml in data set [4] was found to be 100%. In addition, the “% of PHA induced control” value in data set [5] is 89.1%. In data set [6], the “Cell cycle analysis G0/G1” value came to 54.6, the “Cell cycle analysis G2/M” value stood at 10.7 and the “Cell cycle analysis S” value stood at 34.8. For the same molecule, the “% CPE reduction in HIV-1 infected CEM-SS cells” value in [7] worked out at 0.0%. For the same molecule, in data set [8], the “% inhibition” value is 0.0%. In addition, in [9], the “% inhibition of HBV replication in HEP G2 cells” value came to 6.2%. Moreover, the “% of induction” value in data set [10] was found to be 0.6%. The “% inhibition” value in data set [11] worked out at 0.0%. The “% of SAC/IL2 induced control” value in data set [12] was found to be 94.4%. The “% plaque reduction” value in [13] was 1.4%. Also, in data set [14], the viability at 144 h amounted to 100%. Further, the viability at 144 h, 10 micrograms per ml in data set [15] is 100%. The “% inhibition” value in data set [16] is on record as 0.0%. In addition, the “% prevention of ceramide induced apoptosis” value in data set [17] worked out at 0.0%. In addition, the “% inhibition of tube formation” value in [18] is 31%. In addition, the “% of LPS induction” value in data set [19] came to 108.9%.
